According to a melting point compilation (Tetko et al.; mined from patent text by program, amines drawn as free bases though some values may be those of a salt):

| Compound | melting point |
| --- | --- |
| Cc1ccc(S(=O)(=O)C2(CC#Cc3ccc(Cl)cc3)SC(=O)N(C(c3ccccc3)(c3ccccc3)c3ccccc3)C2=O)cc1 (stereo unspecified) | 221 to 223 °C |
| Oc1nsc2c1CCCC2 | 157 to 158 °C |
| CCN1C(=O)CCCc2c(OC)ccc(Nc3ncc(Cl)c(Nc4ccc(N5CCOCC5)cc4OC)n3)c21 | 218 to 220 °C |
| CC(C)(C)C#CC(O)(Cn1cncn1)C(C)(C)C (stereo unspecified) | 114 to 118 °C |
| COc1cc2c(cc1Nc1ncc(Cl)c(Nc3ccccc3S(=O)(=O)C(C)C)n1)CCN(CC(=O)N1CCN(C)CC1)CC2 | 170 °C |
| N#Cc1nn(-c2c(Cl)cc(C(F)(F)F)cc2Cl)cc1C=NO | 170 °C |
| CN(C(=O)Oc1ccc(Cl)c(C(C)(C)C)c1)c1ccc(F)cc1 | 92 to 94 °C |
| CCCCCC(CC(=O)Nc1cc(C(N)=O)ccc1C(C)(C)C)c1ccc(OCCCOCC)cc1OC (stereo unspecified) | 135 to 136 °C |
| Cc1ccc(Cc2cnc(NCCCCNc3ncc(Cl)cc3C)[nH]c2=O)cn1 | 202 to 203 °C |
| COc1ccc(-n2nccc2-c2nn(-c3cccc(C(F)(F)F)c3)ccc2=O)cc1 | 173 to 174 °C |
| O=C(C1CN(S(=O)(=O)c2ccc3cc(Br)ccc3c2)CCN1C(=O)C1CCN(c2ccncc2)CC1)N1CCSCC1 (stereo unspecified) | 250 to 258 °C |
| CCCC1(O)CCC2C3CCC4=CC(=O)CCC4C3CCC21CC (stereo unspecified) | 132 to 134 °C |
| CCN1CCCC1CNC(=O)c1ccc(Nc2ncnc3cc(C(F)(F)F)ccc23)cc1 (stereo unspecified) | 150 to 152 °C |
| Cn1c(C(F)(F)F)cc(=O)n(-c2ccc(Cl)c3c2OC(C)(C)C3)c1=O | 152 to 153 °C |
| CC(C)(COc1ccc2ncc(Cl)n2n1)CS(N)(=O)=O | 197 to 200 °C |
| CCOc1c(C)c(N2CCN(c3ccc(OC)c(C)c3)CC2)c(C)c2c1OC(C)C2 (stereo unspecified) | 80 to 83 °C |
| O=C(O)COc1ccc(C(=C2CCCCCC2)c2ccc(O)cc2)cc1 | 170 to 171 °C |
| COc1cc2cc(COC(C)=O)c(C(=O)OC3OC(CO)C(O)C(O)C3O)c(-c3ccc4c(c3)OCO4)c2cc1OC (stereo unspecified) | 127 to 130 °C |
| CSC(=S)NN=Cc1nc[nH]c1C | 180 °C |
| C=C(C)C(=O)OCCc1ccc(-c2ccc(OC(=O)C(=C)C)cc2)cc1 | 108 °C |
| COC(=O)c1cc(F)c(O)nc1O | 208 to 213 °C |
| C#CCOc1cc(Oc2cc(Cl)cc(Cl)c2)ncn1 | 136 °C |

| Compound | melting point |
| --- | --- |
| Cc1c(N)cc(C(C)(C)C)c2c1CC(C)(C)O2 | 115 to 116 °C |
| CNC(=O)c1cc(N2CCCC2)cc(C)c1C(N)=O | 160 °C |
| C[Si](C)(C)CCCSCCCNC(=O)n1cc(F)c(=O)[nH]c1=O | 105 to 106 °C |
| CC(OCCCNC(=O)c1coc(-c2ccc(/C(=C\CCCCC(=O)O)c3cccnc3)cc2)n1)C1CCCCC1 (stereo unspecified) | 80 to 85 °C |
| CNC(=O)CN1CCc2cc(Nc3ncc(Cl)c(Nc4ccc(N5CCOCC5)cc4OC)n3)c(OC)cc2CC1 | 113 to 130 °C |
| CCOC(=O)CC(C)(C)NCC(O)c1ccc(O)c2[nH]c(C(=O)OCC)cc12 (stereo unspecified) | 175 to 178 °C |
| Cc1ccc([C@@H]2c3c(C)c(N4CCC(c5ccc(F)cc5)CC4)c(C)c(C)c3OC2(C)C)cc1 | 141 to 144 °C |
| CC(C)(C)Nc1c([N+](=O)[O-])cc([N+](=O)[O-])c2nc(C(F)(F)F)[nH]c12 | 177 to 188 °C |
| COCc1c(C(C)C)nc(-c2ccc(F)cc2)c(C=O)c1C(C)C | 77 °C |
| CCCCn1c(=O)n(CCC)c(=O)c2[nH]c(C)nc21 | 174 to 175 °C |
| FC(F)(F)c1cccc(-c2ccn3nccc3n2)c1 | 117 to 118 °C |
| COc1c(C)cnc(CSc2nc3cc(OC(F)(F)F)ccc3[nH]2)c1C | 152 to 154 °C |
| O=c1cc(-c2ccccc2)oc2ccc(OCCCCCCCN3CCC(O)CC3)cc12 | 135 to 136 °C |
| CCCCCCCCCCCCCCCCCCOc1ccc(C(=O)O)c(OCCCOc2ccc(O)cc2)c1 | 97 to 100 °C |
| O=C(NC1CN2CCC1CC2)c1cccc2nc(-c3ccc(Cl)cc3)oc12 (stereo unspecified) | 181 to 183 °C |
| CC(C)(C)[Si](C)(C)O[C@H]1C=C(I)C(=O)C1 | 38.5 °C |
| Nc1ccc(N2CCN(CCC3(Cc4ccc(F)cc4)OCCO3)CC2)nc1N | 118 to 119 °C |
| Clc1ccc(C2=NOCCS2)cc1 | 80.5 to 81.5 °C |
| Cc1nn(CCO)c(C)c1S(=O)(=O)c1cc(Cl)cc(Cl)c1 | 199 to 200 °C |
| O=C/C=C/C=C/c1ccc(OCC(F)(F)C(F)F)cc1 | 53 to 55 °C |
| COc1ccc(O[C@@H]2CCNC[C@H]2O)cc1 (relative stereo) | 171 to 173 °C |

Further lines, results first:

| melting point | Compound |
| --- | --- |
| 193 to 194 °C | CC(C)(O)CCNC(=O)c1n[nH]cc1NC(=O)c1ccccn1 |
| 103 to 109 °C | O=Cc1ccccc1C(=O)c1ccc(Br)cc1 |
| 173 °C | O=C(/C=C/c1cccc(S(=O)(=O)N2CCN(c3cccc(C(F)(F)F)c3)CC2)c1)NO |
| 94 to 96 °C | C[Si](C)(C)C1(COC(=O)Nc2ccccc2)c2ccccc2-c2ccccc21 |
| 112 to 114 °C | CN(C)C(=O)CC1(C)OCCC2=C1c1ccccc1C2 (stereo unspecified) |
| 148 to 150 °C | CC1(C)CC(=O)c2cc(SCc3ccccc3)[nH]c2C1 |
| 130 to 131 °C | CNC(=C[N+](=O)[O-])NCCOc1cccc(CN(C)C)c1 |
| 135 °C | CCOC(=O)C(C(C)=O)C(CC(=O)c1ccccc1)c1ccc(OC)c(OC)c1 (stereo unspecified) |
| 124 to 126 °C | CC1(C)N=C(CCO)C2=C(N1)N(Cc1ccccc1)C(=O)C(N)O2 (stereo unspecified) |
| 161 to 163 °C | O=C(O)CN1C(=O)O[C@H](c2ccccc2)[C@@H]1c1ccccc1 |
| 138 to 139 °C | O=C(O)[C@H](Cc1ccc(OCc2ccccc2)cc1)NS(=O)(=O)c1ccc(F)cc1 |
| 210 °C | COC(=O)C1=C(C)NC(C)=C(C(=O)O)C1c1ccccc1Cl (stereo unspecified) |
| 191 to 192 °C | CC1(c2ccc(-c3ccccc3)cc2)CC(=O)NN1 (stereo unspecified) |
| 230 °C | C#CC1(O)CCc2c(O)c3c(c(O)c2C1)C(=O)c1ccccc1C3=O (stereo unspecified) |
| 211 to 216 °C | O=C(O)c1ccc2ccc(S)cc2c1 |
| 199 to 200 °C | O=C(NCc1ccccc1Cl)Nc1ccc([N+](=O)[O-])cc1O |
| 139 °C | Cc1c(Cc2cccc(C(F)(F)F)c2F)c2ccc(Cl)c(Cl)c2n1CCCNS(C)(=O)=O |
| 72 to 74 °C | CCCCC(OC(C)=O)c1cccc(COc2cc([N+](=O)[O-])cc3cccnc23)c1 (stereo unspecified) |
| 263 to 265 °C | Sc1nc(-c2ccc(Cl)c(Cl)c2)c(-c2cccs2)[nH]1 |
| 254 to 255 °C | Nc1ccc(-c2cc(=O)c3cccnc3o2)cc1 |
| 194 to 195 °C | NC(=O)[C@H](NCc1ccccc1)[C@@H]1CSC(=O)N1Cc1ccccc1 |
| 142 to 143 °C | O=c1c(N2CCNCC2)nc2ccc(F)cc2n1-c1ccccc1 |
| 180 to 181 °C | COC(=O)c1ccc(NC(=O)c2cc(C(C)C)c(C(C)C)s2)cc1O |
| 55 to 56 °C | COC(=O)c1cccc(-c2ccoc2C(F)F)c1 |
| 62 to 67 °C | CCNC(=NS(=O)(=O)c1cccc(Cl)c1)N1CC(C)(C)C=N1 |
| 109 to 110 °C | Cc1sc(-c2ccccc2)nc1COc1cc(COc2ncccc2CC(=O)O)on1 |
| > 300 °C | Cn1cnc2c3cccnc3n(-c3ccccc3)c(=O)c21 |
| 290 °C | CCCCc1nc2ccc(C(=O)O)cc2n1Cc1ccc(C(=O)O)cc1 |
